# Where two headings read alike, the source gives them in different places.
# Tests used:
# [1] = vapour pressure measurement (Clausius-Clapeyron diagram); type: physicochemical
# Protocol: The curve plotted in FIG. 2B represents the Clausius-Clapeyron diagram of the 1,3,5-trimethylborazine molecule, namely its vapour pressure measurement. 1,3,5-trimethylborazine has a vapour pressure of 40 Torr at 50° C. and greater than 200 Torr at 100° C., indicating a good volatility.
# [2] = thermogravimetric analysis; type: physicochemical; details: ramp 20 to 400° C., 10° C./min, 30 mL/min helium
# Protocol: A thermogravimetric analysis of 1,3,5-trimethylborazine was carried out over a temperature ramp of 20 to 400° C., with a rise of 10° C./min under 30 mL/min of helium.
# Curve 2 from FIG. 2A plotted as a lighter line represents the loss in mass of the sample as a function of the temperature. The final value of the residue level of 3.2% indicates a high purity and good thermal stability of 1,3,5-trimethylborazine. This residue level is reached at 165° C.
# Thermogravimetric analysis of tri-butylborane was carried out over a temperature ramp of 20 to 400° C., with a rise of 10° C./min under 30 mL/min of helium.
# Curve 2 from FIG. 4 plotted as a lighter line represents the loss in mass of the sample as a function of the temperature.
# rat = details: cited from earlier work
Compound,vapour pressure ([1]; at 50° C.) [Torr],vapour pressure ([1]; at 100° C.),final value of the residue level (thermal stability) [2] [%],"toxicity qualification with reference to LD50 oral, rat (rat; in vivo, po)","toxicity qualification with reference to LD50 oral, rat (rat; oral)"
"CN1BN(C)BN(C)B1 [1,3,5-trimethylborazine]",40,greater than 200 Torr,3.2,slightly toxic to almost non-toxic,
B.B [diborane],,,,,lethal
CCCCB(CCCC)CCCC [tri-n-butylborane],,,0.6,,
CB(C)C [trimethylborane],,,,,very toxic

# From US8324014B2, “Process for depositing boron compounds by CVD or PVD” (L'Air Liquide Societe Anonyme pour l'Etude et …, priority 2007, dated 2012)
